Among the data in ChEMBL document CHEMBL1268864, “Dolabranes from the Chinese Mangrove, Ceriops tagal” (2010) are Activity values, retold here.

Experiment [1] has as its system Brontispa longissima. In words: Antifeedant activity against third-instar larvae of Brontispa longissima at 1 mg/ml after 24 hrs by leaf disk method. The experiment is classed as functional.
For experiment [2], the system named is Brontispa longissima. In words: Antifeedant activity against third-instar larvae of Brontispa longissima at 0.5 mg/ml after 24 hrs by leaf disk method. The format is functional.
Experiment [3] deals with Brontispa longissima. As to the kind of experiment: Antifeedant activity against third-instar larvae of Brontispa longissima at 0.1 mg/ml after 24 hrs by leaf disk method. The format is functional.
Experiment [4] concerns Brontispa longissima. In words: Antifeedant activity against third-instar larvae of Brontispa longissima at 1 mg/ml after 48 hrs by leaf disk method. The experiment is classed as functional.
In experiment [5] the test system is Brontispa longissima. In words: Antifeedant activity against third-instar larvae of Brontispa longissima at 0.5 mg/ml after 48 hrs by leaf disk method. The format is functional.
Experiment [6] has as its system Brontispa longissima. In words: Antifeedant activity against third-instar larvae of Brontispa longissima at 0.1 mg/ml after 48 hrs by leaf disk method. The experiment is classed as functional.
The test system of a further experiment is A2058. In words: Cytotoxicity against human A2058 cells by MTT assay. The format is functional, cell-based.
The test system of the next experiment is G-361. In words: Cytotoxicity against human G361 cells by MTT assay. The format is functional, cell-based.
The next experiment relates to DU-145. As to the kind of experiment: Cytotoxicity against human DU145 cells by MTT assay. The format is functional, cell-based.
Another experiment relates to MDA-MB-468. As to the kind of experiment: Cytotoxicity against human MDA-MB-468 cells by MTT assay. The format is functional, cell-based.
Another experiment deals with MDA-MB-435. In words: Cytotoxicity against human MDA-MB-435 cells by MTT assay. The format is functional, cell-based.

SMILES strings stand for the structures. The source made the active and inactive calls. No cut-off for these calls is given here.

`CC1=C(O)C(=O)C[C@@H]2[C@@]3(C)CC[C@](C)(O)C[C@@H]3CC[C@]12C` [TAGALSIN P]: the Activity is 48% in the experiment with Brontispa longissima [1]; 18% in the experiment with Brontispa longissima [2]; 14% in the experiment on Brontispa longissima [3]; 22% in the experiment with Brontispa longissima [4]; 6% in the experiment with Brontispa longissima [5]; 2% with Brontispa longissima [6]. Also, the outcome in the experiment with A2058, in the experiment with G-361, in the experiment on DU-145, with MDA-MB-468 and in the experiment on MDA-MB-435 was inactive.
As to `C=C1C(=O)C=C[C@@H]2[C@@]3(C)CC[C@](C)(O)C[C@@H]3CC[C@]12C` [TAGALSIN Q], the Activity with Brontispa longissima [1] is 53%; in the experiment with Brontispa longissima [2], 50%; with Brontispa longissima [3] it was 23%; in the experiment with Brontispa longissima [4], 43%; in the experiment on Brontispa longissima [5], 36%; in the experiment with Brontispa longissima [6], 30%. Besides, the result in the experiment on A2058, in the experiment on G-361, in the experiment with DU-145, with MDA-MB-468 and with MDA-MB-435 was inactive.
`C[C@]1(C(=O)O)CC[C@@]2(C)[C@@H](CC[C@]3(C)/C(=C/O)C(=O)CC[C@H]23)C1` [TAGALSIN R]: the Activity in the experiment on Brontispa longissima [1] turned out to be 40%; in the experiment with Brontispa longissima [2], 37%; in the experiment on Brontispa longissima [3], 18%; in the experiment on Brontispa longissima [4], 28%; in the experiment with Brontispa longissima [5] it was 30%; with Brontispa longissima [6] it was 7%. Further, the result in the experiment on A2058, in the experiment with G-361, with DU-145, with MDA-MB-468 and in the experiment with MDA-MB-435 was inactive.
As to `C[C@]1(C(=O)CO)CC[C@@]2(C)[C@@H](CC[C@]3(C)/C(=C/O)C(=O)CC[C@H]23)C1` [TAGALSIN S], the Activity in the experiment with Brontispa longissima [1] is recorded as 51%; in the experiment on Brontispa longissima [2], 45%; in the experiment on Brontispa longissima [3], 25%; in the experiment with Brontispa longissima [4], 47%; in the experiment with Brontispa longissima [5], 37%; in the experiment with Brontispa longissima [6] it was 36%. Moreover, the result in the experiment with A2058, with G-361, in the experiment with DU-145, in the experiment with MDA-MB-468 and with MDA-MB-435 was inactive.
`C[C@]1(C(O)CO)CC[C@@]2(C)[C@@H](CC[C@]3(C)/C(=C/O)C(=O)CC[C@H]23)C1` (stereo partly specified) [TAGALSIN T]: the Activity was -5% with Brontispa longissima [1]; -11% with Brontispa longissima [2]; -32% in the experiment with Brontispa longissima [3]; -20% in the experiment with Brontispa longissima [4]; -31% with Brontispa longissima [5]; -48% with Brontispa longissima [6]. Moreover, the outcome in the experiment on A2058, with G-361, in the experiment with DU-145, in the experiment with MDA-MB-468 and with MDA-MB-435 was inactive.
For the compound `C=C1C(=O)CC[C@@H]2[C@@]3(C)CC[C@](C)(C(O)CO)C[C@@H]3CC[C@]12C` (stereo partly specified) [TAGALSIN U], the Activity is 52% in the experiment with Brontispa longissima [1]; 41% with Brontispa longissima [2]; 14% with Brontispa longissima [3]; 41% in the experiment with Brontispa longissima [4]; 31% with Brontispa longissima [5]; 10% in the experiment on Brontispa longissima [6]. Moreover, the outcome in the experiment with A2058, in the experiment with G-361, in the experiment with DU-145, with MDA-MB-468 and in the experiment on MDA-MB-435 was inactive.
